One series deals with T1, human GC-A (Homo sapiens, UniProt P16066).
T1 construct: host or cells: HEK293
T1 sequence (P16066 33-1061): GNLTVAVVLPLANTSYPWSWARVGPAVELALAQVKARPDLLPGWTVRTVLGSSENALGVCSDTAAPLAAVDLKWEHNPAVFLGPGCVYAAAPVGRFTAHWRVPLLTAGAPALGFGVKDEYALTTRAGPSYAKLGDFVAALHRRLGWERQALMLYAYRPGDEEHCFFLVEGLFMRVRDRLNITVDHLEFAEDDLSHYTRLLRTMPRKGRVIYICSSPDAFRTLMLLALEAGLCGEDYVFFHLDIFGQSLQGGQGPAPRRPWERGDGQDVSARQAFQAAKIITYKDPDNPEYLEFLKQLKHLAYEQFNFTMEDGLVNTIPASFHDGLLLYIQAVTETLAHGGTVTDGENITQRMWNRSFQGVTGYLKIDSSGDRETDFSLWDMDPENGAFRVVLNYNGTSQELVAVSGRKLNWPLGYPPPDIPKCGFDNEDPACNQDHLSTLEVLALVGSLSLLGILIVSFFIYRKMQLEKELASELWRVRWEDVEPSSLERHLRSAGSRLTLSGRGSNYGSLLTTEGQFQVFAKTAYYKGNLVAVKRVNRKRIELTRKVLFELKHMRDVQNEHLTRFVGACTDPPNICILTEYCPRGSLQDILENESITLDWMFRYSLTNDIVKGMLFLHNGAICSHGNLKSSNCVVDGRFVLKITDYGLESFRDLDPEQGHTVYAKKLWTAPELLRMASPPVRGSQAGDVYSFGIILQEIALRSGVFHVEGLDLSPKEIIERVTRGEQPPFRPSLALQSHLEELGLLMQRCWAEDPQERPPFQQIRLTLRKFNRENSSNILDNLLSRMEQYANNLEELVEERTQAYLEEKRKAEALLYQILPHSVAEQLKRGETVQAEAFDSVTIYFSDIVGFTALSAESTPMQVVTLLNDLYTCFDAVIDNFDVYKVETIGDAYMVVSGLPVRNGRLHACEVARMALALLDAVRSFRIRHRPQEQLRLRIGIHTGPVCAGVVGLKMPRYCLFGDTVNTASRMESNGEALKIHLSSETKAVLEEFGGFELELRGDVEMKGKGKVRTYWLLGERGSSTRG
T1 sequence (P01160 124-151 partner limits assumed): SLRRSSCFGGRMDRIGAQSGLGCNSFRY
The series is described as follows: cGMP potentiation (HTRF) in human GC-A overexpressing HEK293 cells with EC20 ANP. The note with it: for LLE (lipophilic ligand efficiency = EC50−cLogP): calculated from EC50 and cLogP; for Emax: HEK293, 100% = saturating ANP (10 nM), 0% = EC20 ANP. The class given is cell-based.

The conditions of series [1]: cited from earlier work.
Setting [2] is: potentiation of cGMP in presence of EC20 ANP (20 pM), Tables 1-7, read-out: EC50.

Where two headings read alike, the source gives them in different places. A value given as a limit tells only on which side of the number the result lay.

For `CN(C)CCN1CCCCC1C(=O)Nc1nc2c(F)cc(F)cc2s1` (centres unmarked) [JUF-S2-003], the “LLE (lipophilic ligand efficiency = EC50−cLogP)” value on human GC-A is reported as 2.51.
On the same count and under the same terms, to `COc1ccc(-c2csc(NC(=O)C3CCCN(CCN(C)C)C3)n2)cc1` (centres unmarked) [JUF-S7-013] belongs 2.69.
For the molecule `CN(C)C1CCN(CC(=O)Nc2nc3c(F)cc(F)cc3s2)CC1` [JUF-S10-004], the Emax on human GC-A is 91 to 96%. Besides, on human GC-A (setting [2]), the EC50 lay within 1500 to 2600 nM.
With `N[C@@H]1CCCC(C(=O)Nc2nc3c(F)cc(F)cc3s2)C1` (some centres unmarked) [JUF-S12-001A], on human GC-A, the Emax was in the range of 87 to 97%.
`N[C@@H]1CCC[C@H](C(=O)Nc2nc3c(F)cc(F)cc3s2)C1` [JUF-S12-001A]: the EC50 at human GC-A (setting [2]) lay within 700 to 3100 nM.
For `CN(C)CCN[C@@H]1CCC[C@@H](C(=O)Nc2nc3c(F)cc(F)cc3s2)C1` [JUF-S12-002], the 50% effective concentration (EC50) at human GC-A (setting [2]) was above 5000 nM.
As for `CN(C)CCN1CCCC(C(=O)Nc2nc3c(F)cc(F)cc3s2)C1` (centres unmarked) [MCUF 651, reference compound], the “Emax values of internal control (FIG. 2)” value at human GC-A (titrated on each 384-test plate) was 80-100 % response. Besides, the EC50 at human GC-A (titrated on each 384-test plate, read-out: Acceptable EC50 values of internal control (FIG. 2)) lay in the range of 200 to 600 nM.
As to `CN(C)CCN1CCCC(C(=O)Nc2nc3c(F)cc(F)cc3s2)C1` (centres unmarked) [MCUF-651], the Activity in vivo result in series [1] is “active in vivo”. In addition, the Oral bioavailability result in series [1] (in vivo, po) is listed as “orally bioavailable”.

Values taken from patent US20260250275A1, “HETEROARYL ENHANCERS OF THE PARTICULATE GUANYLYL CYCLASE RECEPTOR A” (University of Florida Research Foundation, Incorporated, priority 2022, published 2026).
